Values after ≈ are worked out from the molar mass of the structure shown. Values joined by “and” are separate entries in the source; they are usually repeats but may differ in a detail not shown here. Identical values can stand only once. Counter-ions that a name gives are not always drawn. Like-named read-outs stand apart in the source and are kept apart here.

Data set [1] is described as follows: Stability in analysis medium (cetrimide solution, 3%). The data set is classed as physicochemical. Conditions: 3% cetrimide solution.
The nature of data set [2]: Skin permeation study in side-by-side diffusion cells. It counts as in vitro ADME, pig. On the procedure: Skin permeation studies were carried out using opaque side-by-side diffusion cells with an effective diffusion area of 0.71 cm^2. […] The receptor solution was a 3% w/v cetrimide solution and allowed sink conditions to be maintained. The receptor phase was magnetically stirred at 100 rpm. Dermatomed abdominal pig skin (750 μm) was used. Skin was allowed to hydrate with isotonic saline solution for 1 h before the experiment was started. […] Experiments were performed under complete occlusion. Post-application, at scheduled times (1, 9, 20 and 24 hours), 1 ml samples were taken from the receiver compartment and replaced with the same volume of fresh, temperature-equilibrated receptor fluid. Samples were filtered through 0.45 μm PVDF membrane filters. The amount of endoxifen in the samples was determined by HPLC using the method described above.

Data set [3] can be described thus: Solubility studies (saturated solubility, HPLC). The data set is classed as physicochemical. The settings on record: for solubility: aqueous with cosolvent or surfactant or cyclodextrin, thermodynamic from solid. As for the experimental part: The saturated solubilities of endoxifen were determined in a mixture of absolute ethanol/water (70:30, w/w) by shaking an excess amount of drug in 1 ml of the co-solvent system for at least 24 hours at room temperature. The concentrations of the saturated solutions were determined by HPLC analysis after appropriate dilution.
The saturated solubilities of clomifene citrate were determined in a series of ethanol/water mixtures (40:60, 50:50, 60:40 and 70:30, w/w) by shaking an excess amount of drug in 0.6 ml of the co-solvent system for at least 24 hours at room temperature. […] The concentrations of the saturated solutions were determined by HPLC analysis after appropriate dilution.
The concentrations of the saturated solutions were determined by HPLC analysis after appropriate dilution.
The saturated solubilities of toremifene were determined in a series of ethanol/water mixtures (40:60, 50:50, 60:40 and 70:30, w/w) by shaking an excess amount of drug in 1 ml of the co-solvent system for at least 24 hours at room temperature. […] The concentrations of the saturated solutions were determined by HPLC analysis after appropriate dilution.

A short description of data set [4]: Solubility studies (saturated solubility, HPLC). It counts as physicochemical. Conditions: 3% w/v cetrimide solution, aqueous with cosolvent or surfactant or cyclodextrin, thermodynamic from solid, room temperature.
[5] abbreviates: ethanol/water 70:30 w/w co-solvent system, room temperature, read-out: Solubility in ethanol:water (70:30 w/w).
Where [6] appears, read: 1 hr, saturated solution in 70:30 w/w ethanol-water, donor 30.46 mg/mL.
Where [7] appears, read: 1 h, saturated solution of the drug in 70:30 w/w ethanol-water, — not defined here (Table 2: below LOD).

Regarding `CCC(=C(c1ccc(O)cc1)c1ccc(OCCN(C)C)cc1)c1ccccc1` [4-OH Tamoxifen, 1-[4-(2-N-dimethylaminoethoxy)phenyl]-1-(4-hydroxyphenyl)-2-phenylbut-1-ene], the “Stability in analysis medium” value in data set [1] (30 hours) is reported as “stable”. Moreover, the “cumulative permeation, single cells” value in data set [2] (9 hr, saturated solution in 70:30 v/v ethanol-water, — not defined here (Table 2: below LOD)) is 4.1 μg/cm^2 and 3.3 μg/cm^2. For the same compound, the “cumulative permeation, Average (±SD)” value in data set [2] (20 hr, saturated solution in 70:30 v/v ethanol-water) turned out to be 8.3 ± 4.7 μg/cm^2; in data set [2] (24 hr, saturated solution in 70:30 v/v ethanol-water), 12.5 ± 6.3 μg/cm^2; in data set [2] (24 hr, saturated solution in 70:30 v/v ethanol-water, listed as 4-OH tamoxifen), 12.5 μg/cm^2.

As for `CC/C(=C(/c1ccc(OCCN(C)C)cc1)c1cccc(O)c1)c1ccccc1` [droloxifene citrate, 3-[(1E)-1-[4-[2-(Dimethylamino)ethoxy]phenyl]-2-phenyl-1-butenyl]phenol], the solubility in data set [3] (setting [5]) came to 47400 ± 1700 µg/mL; in data set [4] (n=2) it was 8900 ± 200 µg/mL. Also, in data set [1] (24 hours), the “Stability in analysis medium” value is given as “stable”. Moreover, the “cumulative permeation, Mean (±SD)” value in data set [2] (20 h, saturated solution in 70:30 w/w ethanol-water, donor 45.93±[…]) was found to be 0.62 ± 0.37 μg/cm^2.

As for `CC/C(=C(\c1ccc(O)cc1)c1ccc(OCCNC)cc1)c1ccccc1` [endoxifen, 4-hydroxy-N-desmethyl-tamoxifen], the solubility in data set [3] (setting [5]) was 38700 µg/mL (≈ 104000 µM); in data set [4] it was 6260 ± 280 µg/mL (≈ 16800 µM). The “Stability in analysis medium” value in data set [1] (24 hours) is “stable”. The “experimental permeation after 24 hours relative to in silico prediction” value in data set [2] (37.29 μg/cm^2 versus about 0.98 μg/cm^2 in 24 hours) is 40 times higher. In addition, the “cumulative permeation, Mean (±SD)” value in data set [2] (setting [6]) is reported as “— ((—) below the limit of detection (LOD) of 30 ng/ml.)”; in data set [2] (9 hr, saturated solution in 70:30 w/w ethanol-water, donor 30.46 mg/mL), 0.31 ± 0.36 μg/cm^2; in data set [2] (20 hr, saturated solution in 70:30 w/w ethanol-water, donor 30.46 mg/mL) it was 17.24 ± 15.13 μg/cm^2. In data set [2] (setting [6]), the “cumulative permeation, single cells” value was “— ((—) below the limit of detection (LOD) of 30 ng/ml.)”.

As for `CN(C)CCOc1ccc(/C(=C(/CCCl)c2ccccc2)c2ccccc2)cc1` [toremifene], the solubility amounted to 302 ± 14 µg/mL (≈ 744 µM) in data set [3] (3% w/v cetrimide solution, room temperature, read-out: Solubility in 3% cetrimide solution); 74.7 ± 1.1 µg/mL (≈ 184 µM) in data set [3] (ethanol/water 40:60 w/w co-solvent system, EtOH:Water 40:60 w/w, n=3, read-out: Saturated solubility, Average concentration ± SD); 74.8 µg/mL (≈ 184 µM) in data set [3] (ethanol/water 40:60 w/w co-solvent system, EtOH:Water 40:60 w/w, single experiments, read-out: Saturated solubility, Expt 1-3); 335 ± 15 µg/mL (≈ 825 µM) in data set [3] (ethanol/water 50:50 w/w co-solvent system, EtOH:Water 50:50 w/w, n=3, read-out: Saturated solubility, Average concentration ± SD); 350 µg/mL (≈ 862 µM) in data set [3] (ethanol/water 50:50 w/w co-solvent system, EtOH:Water 50:50 w/w, single experiments, read-out: Saturated solubility, Expt 1-3); 1050 ± 37 µg/mL (≈ 2600 µM) in data set [3] (ethanol/water 60:40 w/w co-solvent system, EtOH:Water 60:40 w/w, n=3, read-out: Saturated solubility, Average concentration ± SD). The solubility in data set [3] (ethanol/water 60:40 w/w co-solvent system, EtOH:Water 60:40 w/w, single experiments, read-out: Saturated solubility, Expt 1-3) was found to be 1090 µg/mL (≈ 2680 µM); in data set [3] (ethanol/water 70:30 w/w co-solvent system, EtOH:Water 70:30 w/w, n=3, read-out: Saturated solubility, Average concentration ± SD), 2730 ± 124 µg/mL (≈ 6720 µM); in data set [3] (ethanol/water 70:30 w/w co-solvent system, EtOH:Water 70:30 w/w, single experiments, read-out: Saturated solubility, Expt 1-3) it was 2860 µg/mL (≈ 7050 µM). Also, the “Saturated solubility, Expt 1-3” value in data set [3] (EtOH:Water 40:60 w/w, single experiments) was 75.4 µg/mL and 74 µg/mL; in data set [3] (EtOH:Water 50:50 w/w, single experiments) it was 333 µg/mL and 324 µg/mL; in data set [3] (EtOH:Water 60:40 w/w, single experiments), 1063 µg/mL and 1009 µg/mL; in data set [3] (EtOH:Water 70:30 w/w, single experiments), 2698 µg/mL and 2623 µg/mL. Besides, in data set [1] (24 hours), the “Stability in analysis medium” value is given as “stable”. Further, the “cumulative permeation, Mean (±SD)” value in data set [2] (setting [7]) was determined as 3.38 μg/cm^2; in data set [2] (9 h, saturated solution of the drug in 70:30 w/w ethanol-water, — not defined here (Table 2: below LOD)), 1.53 ± 2.6 μg/cm^2; in data set [2] (20 h, saturated solution of the drug in 70:30 w/w ethanol-water), 3.89 ± 3.2 μg/cm^2. In addition, the “cumulative permeation, single cells” value in data set [2] (setting [7]) is recorded as 3.38 μg/cm^2.
